The test system of series [1] is GADD153. The experiment in a line: GADD153 immunostaining of kidney sections. The series is classed as in vivo. The settings on record: PN21 mouse kidney sections, vs DMSO. From the text:
FIG. 12A, FIG. 12B, and FIG. 12C show GADD153 expression in kidneys of Pkd1fllfl; Pax8^rtTA; TetO-cre mice. Immunofluorescence images representing the GADD expression (green) in DMSO (FIG. 12A) or VX-809 (FIG. 12B) treated PN21 Pkd1^fl/fl mouse. Columns (FIG. 12C) represent % area of GADD immunopositive (green) cells in DMSO or VX-809 treated PN21 Pkd1^fl/fl mouse kidney sections. Data are expressed as mean±1 SEM of DMSO (vehicle)-treated (n=4) and VX-809-treated (n=4) mice. Statistical analysis was performed using a 2-tailed Student t-test. DMSO, dimethyl sulfoxide. Kidneys were fixed in 4% paraformaldehyde as described (62). Used here was the GADD153 antibody (Sc-7351), goat antirabbit (A21429, AlexaFluor 555, 1:1,000; Life Technologies, Carlsbad, Calif.) and DAPI (H-1200; Vector Laboratories, Burlingame, Calif.). Pictures were acquired with a Zeiss microscope equipped a 20× objective. Cells positive for GADD153 and the total number of cells were measured with ImageJ. The results are expressed as percentages;
Given that VX-809 alters an ensemble of Hsps, it was evaluated whether VX-809 alters proteins associated with ER stress. To address this question, the levels of three ER stress-associated proteins were measured, 78-kDa glucose-regulated protein (GRP78), ER oxidoreductin 1 (Ero1) and DNA damage-inducible protein 3 (GADD153), also known as C/EBP homologous protein (CHOP) (37). […]

In series [2] the test system is Pkd1^fl/fl; Pax8^rtTA; TetO-cre mice. The experiment in a line: Cyst growth and renal function in doxycycline-induced Pkd1 knockout mice. The format is in vivo, mouse. As for the experimental part: (FIG. 1A) Representative images of postnatal day (PND) 21 kidney sections from DMSO- and VX-809-treated mice. Significant reductions occurred in (FIG. 1B) cyst index, (FIG. 1C) kidney weight, and (FIG. 1D) kidney-to-body weight ratio. […] Methods: The total kidney area and total cystic area were measured with ImageJ (provided by NIH). Cystic index=100 X (total cystic area/total kidney area) and is expressed as a percentage. Columns represent means±standard error (SEM) for DMSO (vehicle)-treated (n=4-5) and VX-809 mice. *P<0.05; **P<0.01 (for all graphs). Statistical analysis was performed using an unpaired two-tailed Student's t-test;
When treated with doxycycline, these mice express Cre, causing knockout of PC1. […] Kidney weight (FIG. 1C) and kidney-to-body weight ratios (FIG. 1D) were also lower than those of the control mice. There was no difference in overall body weight (FIG. 1E) between the treated and untreated groups. […] The dosage of VX-809 injected was lower than the human pediatric dose, which is 500 mg of Lumacaftor per day; the adult dose is 800 mg/day.
Mouse strain and treatment. Pkd1^fl/fl; Pax8^rtTA; TetO-cre mice on a C57BL/6 background (61) were provided by the Baltimore PKD Center. Mice of both sexes were used in this study. Mice were injected IP with doxycycline (Sigma, #D9891) (4 μg of doxycycline/g body weight) on postnatal day 11 (PND11), PND12, and PND13 to produce very rapid and aggressive cyst growth. On PND21, the mice were euthanized.
To determine the location of PC2 in the cilia, confocal microscopy experiments using the Pkd1^fl/fl; Pax8^rtTA TetO-cre mouse model were conducted. These mice, when injected intraperitoneally (IP) with doxycycline on postnatal days (PND) 11, 12, and 13, developed multiple large cysts and large polycystic kidneys at approximately 3 weeks of age.

Series [3] deals with caspase 3 activity in PN cells. The series is described as follows: EnzChek Caspase-3 assay (apoptosis). The series is classed as cell-based, mouse. The settings on record: 16 h. How it is done: Apoptosis was measured using the EnzChek Caspase-3 Assay Kit (Invitrogen #E13184). Cells were treated either with VX-809 or with DMSO at indicated concentrations for 16 h or left untreated (control). Both treated and control cells were then harvested, lysed, and assayed as described in the manufacturer's protocol. Reactions were carried out at room temperature, and fluorescence was measured in a fluorescence microplate reader (SpectraMax M3), with excitation at 496 nm and emission detection at 520 nm. Background fluorescence, determined for a no-enzyme control, has been subtracted from each value. Ac-DEVD-CHO was used as an inhibitor control (Inh-cntr1) to confirm the correlation between signal detection and caspase3-like protease activity. Data were analyzed using one-way and ANOVA multiple comparisons. n=4-5. ****P<0.0001;
Apoptosis is associated with the absence of PC1 in ADPKD. To assess whether apoptosis is directly altered by VX-809, caspase 3 activity was monitored in PN cells.

Series [4] deals with PN (pkd1-null) cells. The experiment in a line: In vitro cystogenesis (3D Matrigel culture, cyst size by cross-sectional area). The series is classed as cell-based, mouse. How it is done:
Cells were treated with DMSO (control), VX-809, or C18 (10 μM) plus or minus forskolin on Days 0, 2, 4, 6, 8, 10, 12, 14. […] Cells were treated with DMSO (control), C18 or VX-809 (10 μM) from 9-16 (7) days. All pictures were taken on Day 16. Columns represent means±SEM (n=6). The average cyst size from the control group was considered 100%, and the sizes of the rest of the cysts were compared with this average. ****P<0.0001. Cyst size was estimated from the cross-sectional area;
VX-809 Reduces Cyst Growth in Vitro Experiments were conducted using a model ADPKD cell line (PH=pkd1+/− heterozygote control; PN=pkd−/− knockout), clonally isolated from single parental clones obtained from a pkdf1/− mouse that was manufactured in an ImmortoMouse containing the H-2Kb-tsA58 gene. The null cells (PN) stably express the Cre recombinase. All the cells proximal tubule origin. To determine how VX-809 reduces cyst growth, cysts were grown in the presence of forskolin (FIG. 2). […] Taken together with the animal data provided in FIG. 1, these in vitro results clearly indicate that CFTR correctors are effective in reducing cyst growth.
In vitro cytogenesis. To induce differentiation, cells were kept at 37° C. for at least 6 days without gamma-interferon. After one week, the cells were used for 3D culture or other experiments. Growth factor-reduced Matrigel #354230 (Corning) was used, and cell dilutions were prepared so that there were approximately 6,000 cells in 25 μl of medium; 25 μl of cell preparation was mixed with 50 μl of Matrigel. Pictures were taken with a Zeiss Axio microscope. Cystic areas were analyzed with ImageJ (provided by the NIH).

[5] abbreviates: 30 mg/kg IP daily PND10 to PND20, vs DMSO-treated mice.
The mark [6] stands for this setting: 30 mg/kg IP daily PND10 to PND20, vs control mice.
[7] abbreviates: injected daily PND10 to PND20, vs DMSO-treated mice.

“Also recorded” adds a separate entry of the source.

`Cc1ccc(NC(=O)C2(c3ccc4c(c3)OC(F)(F)O4)CC2)nc1-c1cccc(C(=O)O)c1` [VX-809, lumacaftor]: the GADD153 immunostaining result in series [1] is reported as “strong reduction”. Further, the overall body weight result in series [2] (30 mg/kg IP daily PND10 to PND20, treated vs untreated) is recorded as “no difference”. In series [2] (setting [5]), the “blood urea nitrogen (BUN)” value is recorded as “lowered”, the creatinine entry is listed as “lowered” and the “cyst growth (cyst index)” value is recorded as −60.4%. Besides, in series [2] (setting [6]), the Kidney weight result is listed as “lower” and the kidney-to-body weight ratios entry is “lower”. Also, in series [2] (setting [7]), the “cyst growth (in words)” value is “significantly less cyst growth” and the renal function result is “improved renal function”. Also, the “caspase 3 activity” value in series [3] was “small reduction”. Moreover, the “size of established cysts” value in series [4] (10 μM from Days 9-16, in the presence of forskolin) was “reduces the size of established cysts”. For the same compound, the cyst growth result in series [4] (10 μM on Days 0, 2, 4, 6, 8, 10, 12, 14, plus or minus forskolin) is given as “reduce cyst growth equally well; also recorded: inhibits cyst growth”. In series [4] (every other day or Days 9-16, in the presence of forskolin), the cyst size entry is “dramatically reducing cyst size”.

Values taken from patent US20220133702A1, “CYSTIC FIBROSIS TRANSMEMBRANE CONDUCTANCE REGULATOR MODULATORS FOR TREATING AUTOSOMAL DOMINANT POLYCYSTIC KIDNEY DISEASE” (The Johns Hopkins University, priority 2020, published 2022).
